Assay results reported in patent publication US7214771B2, “Nucleic acid and protein expression thereby and their involvement in stress” (University of Medicine & Dentistry of New Jersey, priority 1999, dated 2007).

Columns and labels:
[1] = test system: human ovarian cancer cells; conditions: cited from earlier work
RIAZ = test: Localization of GFP/RIAZ in HTB-46 cells cotransfected with RIα (fluorescence microscopy); assay type: cell-based, human; conditions: HTB-46 cells cotransfected with RIα and GFP/RIAZ; cAMP for 8 hr
Protocol: FIG. 10 depicts the effect of RIα and cAMP on localization of RIAZ. GJP fusions at the N-terminus (GFP/RIAZ) and the C-terminus (RIAZ/GFP) were generated. […] Localization of GFP/RIAZ on co-transfection with RIα is redistributed to the nucleus on addition of cAMP(Panel D). In more detail, nuclear localization of RIAZ and regulation of its localization by RIα in the presence or absence of cAMP was performed as follows: (A,B) HTB-46 cells were plated the night before and then transfected with GFP/RIAZ the following day. Localization of RIAZ was visualized 24 hr after transfection using a fluorescence microscope. (C) HTB-46 cells were cotransfected with RIα and GFP/RIAZ in the absence of cAMP. (D) RIAZ distribution after addition of cAMP for 8 hr.
To further understand the mechanisms of interaction of RIα with RIAZ, we constructed a hybrid protein between RIAZ and the green fluorescence protein (GFP), with GFP fused to either the N-terminal (GFP/RIAZ) or the C-terminal (RIAZ/GFP) end of RIAZ. Distribution of RIAZ was visualized using a Zeiss Axioskop fluorescence microscope. […] Even though the nuclear localization of RIAZ was not affected by the position of GFP either at the amino or the carboxy terminal end of RIAZ, however, whether the transcriptional activity of RIAZ may be affected remains to be determined. […]

[2] = test system: human bladder cancer and human testicular embryonal germ cell carcinoma; conditions: simultaneous cisplatin and dipyridamole; high concentrations of dipyridamole; cited from earlier work
RIα = biological target: T1, RIα (Homo sapiens, UniProt P10644); test: Binding of in vitro-translated RIAZ to immobilized GST-RIα (pull down); conditions: [35S]methionine labeled RIAZ; GST as control
T1 construct: made in house; host or cells: E. coli (GST-RIα); RIAZ made by in vitro translation
T1 sequence (P10644 whole entry): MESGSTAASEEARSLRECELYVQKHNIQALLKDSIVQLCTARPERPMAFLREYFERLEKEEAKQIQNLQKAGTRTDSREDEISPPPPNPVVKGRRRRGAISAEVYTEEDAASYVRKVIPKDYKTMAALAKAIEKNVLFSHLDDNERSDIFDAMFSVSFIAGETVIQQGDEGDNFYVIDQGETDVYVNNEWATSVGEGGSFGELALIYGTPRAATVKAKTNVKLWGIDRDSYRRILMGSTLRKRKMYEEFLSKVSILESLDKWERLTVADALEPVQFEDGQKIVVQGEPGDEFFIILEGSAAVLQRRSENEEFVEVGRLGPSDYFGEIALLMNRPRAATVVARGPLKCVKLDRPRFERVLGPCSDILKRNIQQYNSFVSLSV
Protocol: FIG. 8. Binding of in-vitro translated RIAZ protein to RIα. GST and GST-RIα proteins were immobilized on glutathione resins and then incubated with [^35S]methinine labeled RIAZ. The complexes were thoroughly washed and eluted in gel-loading buffer, separated by SDS-PAGE, and exposed to X-ray film.
Deletion of a cluster of ATG in the 5′ end of the RIAZ cDNA seemed to enhance translation from the putative ATG start codon of the open reading frame that encode the BTB-POZ domain zinc finger. […] In addition, based on the functions of other BTB-POZ zinc finger proteins in this family, which play various roles in apoptosis, transcription repression, and regulation of cell proliferation, we speculate that RIAZ may have a role in these important cellular functions. Since the emergence of drug resistance in cancer is also intimately influenced by apoptosis, alterations in cellular transcription programs and tumorigenesis, therefore, it is conceivable that RIα mediated drug resistance may be executed through the actions of RIAZ. Biochemical and molecular characterizations of the interaction of RIAZ with RI and its function and significance in drug resistance may yield insights into the mechanisms of this novel cAMP signaling pathway.

## CC(C)Cn1c(=O)n(C)c(=O)c2[nH]cnc21 [3-isobutyl-1-methylxanthine]
[1]; treated ovarian carcinoma cells compared to untreated cells
  effect on cisplatin sensitivity: increase in cisplatin sensitivity

## Nc1ncnc2c1nc(Br)n2[C@@H]1O[C@@H]2COP(=O)(O)O[C@H]2[C@H]1O [8-Br-cAMP]
RIAZ
  RIAZ subcellular distribution after treatment: translocate to the nucleus

## OCCN(CCO)c1nc(N2CCCCC2)c2nc(N(CCO)CCO)nc(N3CCCCC3)c2n1 [dipyridamole]
[2]
  tumor response in combination with cisplatin: complete tumor regression
[1]; dipyridamole treatment, cisplatin-resistant cells
  effect on growth of cisplatin-resistant cells: did not affect the growth

B1: RIAZ: novel BTB-POZ domain zinc finger protein of 641 amino acids, SEQ ID NO: 17 (protein, listed as Homo sapiens)
chain: MERVNDASCGPSGCYTYQVSRHSTEMLHNLNQQRKNGGRFCDVLLRVGDESFPAHRAVLAACSEYFESVFSAQLGDGGAADGGPADVGGATAAPGGGAGGSRELEMHTISSKVFGDILDFAYTSRIVVRLESFPELMTAAKFLLMRSVIEICQEVIKQSNVQILVPPARADIMLFRPPGTSDLGFPLDMTNGAALAANSNGIAGSMQPEEEAARAAGAAIAGQASLPVLPGVDRLPMVAGPLSPQLLTSPFPSVASSAPPLTGKRGRGRPRKANLLDSMFGSPGGLREAGILPCGLCGKVFTDANRLRQHEAQHGVTSLQLGYIDLPPPRLGENGLPISEDPDGPRKRSRTRKQVACEICGKIFRDVYHLNRHKLSHSGEKPYSCPVCGLRFKRKDRMSYHVRSHDGSVGKPYICQSCGKGFSRPDHLNGHIKQVHTSERPHKCQTCNASFATRDRLRSHLACHEDKVPCQVCGKYLRAAYMADHLKKHSEGPSNFCSICNREGQKCSHQDPIESSDSYGDLSDASDLKTPEKQSANGSFSCDMAVPKNKMESDGEKKYPCPECGSFFRSKSYLNKHIQKVHVRALGGPLGDLGPALGSPFSPQQNMSLLESFGFQIVQSAFASSLVDPEVDQQPMGPEGK
RIα
  binding to GST-RIα: showed binding to GST-RIα but not to GST control
